For six molecules, Activity and IC50 results are on record in ChEMBL document CHEMBL1144776, “Anti-inflammatory constituents of the red alga Gracilaria verrucosa and their synthetic analogues” (J Nat Prod, 2008).

Active and inactive are the calls of the source. The rule behind the calls is not given here.

Common to all, as to type: functional, cell-based
In assay [1] the test system is RAW264.7. Nature of the assay: Antiinflammatory activity in mouse RAW264.7 cells assessed as inhibition of LPS-stimulated NO production at 5 to 20 ug/mL after 24 hrs by […]. (In general: In an ELISA, binding on a coated surface is turned into a signal by an enzyme label.)
In assay [2] the test system is RAW264.7. Nature of the assay: Antiinflammatory activity in mouse RAW264.7 cells assessed as inhibition of LPS-stimulated nitric oxide production after 24 hrs by […]. The note with it: RAW264.7, 24 h.
Assay [3] concerns RAW264.7. Nature of the assay: Suppression of iNOS mRNA expression in mouse RAW264.7 cells.

For `CCCCCCCC/C=C(\C(=O)CCCCCCC(=O)O)c1ccccc1`, in the assay on RAW264.7 [1], the result was inactive.
The same measure, in the same setting: the value for `CCCCCCC/C=C(\C(=O)CCCCCCCC(=O)OC)c1ccccc1` was “inactive”.
As a reminder, the IC50 is the concentration needed to halve the response being measured. For the molecule `CCCCCCC/C=C/C(=O)CCCCCCCC(=O)O`, in the assay on RAW264.7 [2], the IC50 was < 33.8 µM. For the same molecule, the outcome with RAW264.7 [3] was Active.
In the same order, the values of `CCCCCCCCC(=O)/C=C/CCCCCCC(=O)O` are < 33.8 µM and “Active”.
With `CCCCCCCC(=O)/C(=C\CCCCCCCC(=O)OC)c1ccccc1`, the outcome in the assay on RAW264.7 [1] was inactive.
With `CCCCCCC/C=C(\C(=O)CCCCCCCC(=O)O)c1ccccc1`, in the assay with RAW264.7 [1], the result was inactive.
